The source made the active and inactive calls. The calls are words filed in the database; no cut-off is given here. Where a SMILES comes first, the peptide text is derived from it. [ ]: non-standard residue; d: D form. Hyp = O=C(O)[C@@H]1C[C@@H](O)CN1
Test system: Platelet
Assay: Inhibition of type III collagen-induced platelet aggregation in human platelet rich plasma at 1 mM
Type: functional

SMILES | inhibition at 1000 µM [%] | inhibition
NCCCC[C@H](NC(=O)[C@@H]1CCCN1C(=O)CNC(=O)[C@@H]1C[C@@H](O)CN1C(=O)[C@H](CCC(=O)O)NC(=O)CNC(=O)[C@@H]1C[C@@H](O)CN1C(=O)[C@@H](N)CCCCN)C(=O)O (H-K[Hyp]GE[Hyp]GPK-OH) | 86.1 | 
C[C@H](NC(=O)[C@@H]1C[C@@H](O)CN1C(=O)[C@H](CCC(=O)O)NC(=O)CNC(=O)[C@@H]1C[C@@H](O)CN1C(=O)[C@@H](N)CCCCN)C(=O)N1CCC[C@H]1C(=O)N[C@@H](CCCCN)C(=O)O (H-K[Hyp]GE[Hyp]APK-OH) | 72.1 | 
C[C@H](NC(=O)[C@@H]1C[C@@H](O)CN1C(=O)[C@@H](N)CCCCN)C(=O)N[C@@H](CCC(=O)O)C(=O)N1C[C@H](O)C[C@H]1C(=O)N[C@@H](C)C(=O)N1CCC[C@H]1C(=O)N[C@@H](CCCCN)C(=O)O (H-K[Hyp]AE[Hyp]APK-OH) |  | inactive
NCCCC[C@H](NC(=O)[C@H](CCCCN)NC(=O)[C@@H]1C[C@@H](O)CN1C(=O)[C@@H]1C[C@@H](O)CN1)C(=O)N[C@@H](CCC(=O)O)C(=O)N1CCC[C@H]1C(=O)NCC(=O)NCC(=O)O (H-[Hyp][Hyp]KKEPGG-OH) |  | inactive

— ChEMBL document CHEMBL1158363, “Circular dichroism studies of type III collagen mimetic peptides with anti- or pro-aggregant activities on human platelets” (2009)
